Measurements taken from patent US20250064941A1, “SIGLEC LIGANDS, CONJUGATES, AND METHODS OF USE THEREOF” (Osprey Biopharmaceuticals, Inc., priority 2023, published 2025).

How the values were obtained:
[1] = biological target: T1, mouse Siglec-2-Fc-Avi (CD22) (Mus musculus, UniProt P35329); experiment: SPR binding affinity to mouse CD22; conditions: steady-state analysis
T1 construct: made in house
T1 sequence (P35329 22-708 limits assumed): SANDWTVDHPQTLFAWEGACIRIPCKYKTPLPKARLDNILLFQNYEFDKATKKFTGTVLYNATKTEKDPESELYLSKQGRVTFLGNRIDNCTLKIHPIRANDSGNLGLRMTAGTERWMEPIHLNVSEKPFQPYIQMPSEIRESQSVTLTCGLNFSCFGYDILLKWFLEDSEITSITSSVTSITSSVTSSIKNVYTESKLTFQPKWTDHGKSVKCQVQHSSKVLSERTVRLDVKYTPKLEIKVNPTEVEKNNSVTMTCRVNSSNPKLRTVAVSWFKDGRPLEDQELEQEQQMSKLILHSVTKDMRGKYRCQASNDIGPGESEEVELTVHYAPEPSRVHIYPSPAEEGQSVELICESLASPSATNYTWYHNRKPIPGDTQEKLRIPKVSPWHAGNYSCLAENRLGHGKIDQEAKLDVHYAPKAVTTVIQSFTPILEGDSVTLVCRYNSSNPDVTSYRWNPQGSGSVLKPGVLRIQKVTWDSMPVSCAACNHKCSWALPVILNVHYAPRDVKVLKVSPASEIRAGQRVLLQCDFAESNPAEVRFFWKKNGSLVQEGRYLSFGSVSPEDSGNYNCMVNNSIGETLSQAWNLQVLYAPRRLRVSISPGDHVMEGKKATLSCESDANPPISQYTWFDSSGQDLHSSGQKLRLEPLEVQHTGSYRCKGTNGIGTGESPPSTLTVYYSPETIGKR
Method: (§1) Prior to immobilization, CD22 proteins were treated with SialoExo (Genovis, Cat #G1-SM1-020) for 4 hours at 37° C. to remove native sialic acid residues.
(§2) Capture of biotinylated CD22 constructs was performed using a Cytiva SA chip (BR100398) on a Biacore 8K instrument.
(§3) Binding experiments of Siglec-ligand conjugated proteins or Siglec ligand compounds were performed on the surfaces prepared above in 10 mM HEPES, 150 mM NaCl, 0.05% Tween-20, pH 7.5, 1% DMSO as the running buffer. […] The compounds were then allowed to dissociate from the surface for 120 seconds. […] Solvent correction was performed using 0.5, 1, 1.5, and 2% DMSO spike into running buffer without DMSO. […] Data was analyzed using steady-state analysis in Biacore Insight Evaluation Software, version 3.0 for Siglec ligand compounds.

cynomolgus Siglec-2/CD22 = cynomolgus Siglec-2/CD22 (Macaca fascicularis, UniProt A0A2K5WCZ6); experiment: biochemical; assay type: binding; conditions: SPR, steady-state analysis; read-out: Affinity cyno CD22
cynomolgus Siglec-2/CD22, sequence (A0A2K5WCZ6 entry or part of it): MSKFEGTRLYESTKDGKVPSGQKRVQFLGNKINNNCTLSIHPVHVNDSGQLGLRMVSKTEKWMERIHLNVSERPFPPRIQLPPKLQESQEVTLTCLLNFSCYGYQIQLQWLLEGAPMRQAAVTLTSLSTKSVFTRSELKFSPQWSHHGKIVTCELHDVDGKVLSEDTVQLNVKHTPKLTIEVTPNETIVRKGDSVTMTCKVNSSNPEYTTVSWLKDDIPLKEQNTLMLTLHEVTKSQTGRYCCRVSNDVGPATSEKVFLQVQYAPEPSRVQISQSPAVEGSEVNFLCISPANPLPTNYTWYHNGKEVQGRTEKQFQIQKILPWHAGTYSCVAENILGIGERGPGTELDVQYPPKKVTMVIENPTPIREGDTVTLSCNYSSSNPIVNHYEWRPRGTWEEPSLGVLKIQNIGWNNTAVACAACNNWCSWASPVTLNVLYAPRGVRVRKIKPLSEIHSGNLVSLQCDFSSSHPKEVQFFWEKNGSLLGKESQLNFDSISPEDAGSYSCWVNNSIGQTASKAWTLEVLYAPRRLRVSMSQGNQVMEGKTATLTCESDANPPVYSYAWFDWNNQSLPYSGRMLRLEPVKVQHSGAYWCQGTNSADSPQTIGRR
Method: as §1
Surface preparation for cyno CD22 protein consisted of amine coupling to Cytiva CM5 chip (Cytiva, Cat #BR100530) using the Cytiva amine coupling kit Type 2 (Cytiva, Cat #BR100633). Following the standard amine coupling protocols, EDC and NHS from the kit were mixed 1:1 and injected over flow cells 1 and 2. […] Any active carboxy groups were then capped with 1M Ethanolamine, pH 8.5 for 420s on flow cells 1 and 2.
as §3

[2] = biological target: T2, human Siglec-2/CD22 protein (Homo sapiens, UniProt P20273); experiment: SPR binding affinity to human CD22; conditions: steady-state analysis
T2 construct: purchased Acro Biosystems SI2-H82E3
T2 sequence (P20273 20-847): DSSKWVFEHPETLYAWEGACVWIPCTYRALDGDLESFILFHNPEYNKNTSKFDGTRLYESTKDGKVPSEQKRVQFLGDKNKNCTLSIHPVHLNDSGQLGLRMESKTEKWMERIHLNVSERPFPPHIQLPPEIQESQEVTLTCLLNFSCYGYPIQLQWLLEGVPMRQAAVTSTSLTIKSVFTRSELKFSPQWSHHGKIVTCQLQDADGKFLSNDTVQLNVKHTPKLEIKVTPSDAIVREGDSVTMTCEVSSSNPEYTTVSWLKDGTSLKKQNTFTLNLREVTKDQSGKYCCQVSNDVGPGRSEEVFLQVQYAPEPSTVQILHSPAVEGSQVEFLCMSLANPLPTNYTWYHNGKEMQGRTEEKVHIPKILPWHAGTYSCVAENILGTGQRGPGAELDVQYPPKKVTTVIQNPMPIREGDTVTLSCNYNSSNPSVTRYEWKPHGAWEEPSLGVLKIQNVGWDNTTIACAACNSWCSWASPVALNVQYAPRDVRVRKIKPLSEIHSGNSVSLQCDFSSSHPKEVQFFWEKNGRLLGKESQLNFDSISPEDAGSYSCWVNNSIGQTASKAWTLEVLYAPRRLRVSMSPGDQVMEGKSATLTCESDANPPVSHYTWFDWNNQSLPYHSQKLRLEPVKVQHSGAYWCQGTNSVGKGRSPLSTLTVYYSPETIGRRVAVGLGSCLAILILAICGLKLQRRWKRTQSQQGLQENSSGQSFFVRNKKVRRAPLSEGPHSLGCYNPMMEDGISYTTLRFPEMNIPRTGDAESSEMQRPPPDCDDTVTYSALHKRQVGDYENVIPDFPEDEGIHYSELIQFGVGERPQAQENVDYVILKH
Method: as §1, §2, §3

Row | Structure (SMILES) | Kd [1] [nM] | Kd (cynomolgus Siglec-2/CD22) [nM] | Kd [2] [nM]
1 | C#CCOCCOCCO[C@]1(C(=O)O)C[C@H](O)[C@@H](NC(=O)CO)[C@H]([C@H](O)[C@H](O)CNC(=O)c2ccccc2Cl)O1 [Compound 27, (2R,4S,5R,6R)-6-((1R,2R)-3-(2-chlorobenzamido)-1,2-dihydroxypropyl)-4-hydroxy-5-(2-hydroxyacetamido)-2-(2-(2-(prop-2-yn-1-yloxy)ethoxy)ethoxy)tetrahydro-2H-pyran-2-carboxylic acid] | > 10000 | > 10000 | > 10000
2 | C#CCCOc1ccc(CO[C@]2(C(=O)O)C[C@H](O)[C@@H](NC(=O)CO)[C@H]([C@H](O)[C@H](O)CNC(=O)Cc3cccc(-c4ccccc4O)c3)O2)cc1 [Compound 46, (2R,4S,5R,6R)-2-((4-(but-3-yn-1-yloxy)benzyl)oxy)-6-((1R,2R)-1,2-dihydroxy-3-(2-(2′-hydroxy-[1,1′-biphenyl]-3-yl)acetamido)propyl)-4-hydroxy-5-(2-hydroxyacetamido)tetrahydro-2H-pyran-2-carboxylic acid] | 1000 to 10000 | 1000 to 10000 | < 1000
3 | C#CCOCCCCCCO[C@]1(C(=O)O)C[C@H](O)[C@@H](NC(=O)CO)[C@H]([C@H](O)[C@H](O)CNC(=O)Cc2ccc(C(C)C)cc2)O1 [Cpd. 159, (2R,4S,5R,6R)-6-((1R,2R)-1,2-dihydroxy-3-(2-(4-isopropylphenyl)acetamido)propyl)-4-hydroxy-5-(2-hydroxyacetamido)-2-((6-(prop-2-yn-1-yloxy)hexyl)oxy)tetrahydro-2H-pyran-2-carboxylic acid] | < 1000 | < 1000 | < 1000
4 | CC(=O)NCCOCCOCCOCCOCc1cn(CCCCCCO[C@]2(C(=O)O)C[C@H](O)[C@@H](NC(=O)CO)[C@H]([C@H](O)[C@H](O)CNC(=O)Cc3ccc(C(F)F)cc3)O2)nn1 [Compound 252, (2R,4S,5R,6R)-6-((1R,2R)-3-(2-(4-(difluoromethyl)phenyl)acetamido)-1,2-dihydroxypropyl)-4-hydroxy-5-(2-hydroxyacetamido)-2-((6-(4-(15-oxo-2,5,8,11-tetraoxa-14-azahexadecyl)-1H-1,2,3-triazol-1-yl)hexyl)oxy) tetrahydro-2H-pyran-2-carboxylic acid] | 1000 to 10000 | < 1000 | < 1000
5 | C#CCOCCCCCCO[C@]1(C(=O)O)C[C@H](O)[C@@H](NC(=O)CO)[C@H]([C@H](O)[C@H](O)CNC(=O)Cc2cccc(O)c2)O1 [Compound 144, (2R,4S,5R,6R)-6-((1R,2R)-1,2-dihydroxy-3-(2-(3-hydroxyphenyl)acetamido)propyl)-4-hydroxy-5-(2-hydroxyacetamido)-2-((6-(prop-2-yn-1-yloxy)hexyl)oxy)tetrahydro-2H-pyran-2-carboxylic acid] | 1000 to 10000 | < 1000 | 1000 to 10000
6 | C#CCCOc1ccc(CO[C@]2(C(=O)O)C[C@H](O)[C@@H](NC(=O)CO)[C@H]([C@H](O)[C@H](O)CNC(=O)Cc3ccc(-c4ccc(NC(C)=O)cc4)cc3)O2)cc1 [Compound 50, (2R,4S,5R,6R)-6-((1R,2R)-3-(2-(4′-acetamido-[1,1′-biphenyl]-4-yl)acetamido)-1,2-dihydroxypropyl)-2-((4-(but-3-yn-1-yloxy)benzyl)oxy)-4-hydroxy-5-(2-hydroxyacetamido)tetrahydro-2H-pyran-2-carboxylic acid] | < 1000 | 1000 to 10000 | < 1000
7 | C#CCOP(=O)(O)OCCCCO[C@]1(C(=O)O)C[C@H](O)[C@@H](NC(=O)CO)[C@H]([C@H](O)[C@H](O)CNC(=O)Cc2ccc(Cl)cc2)O1 [Compound 115, (2R,4S,5R,6R)-6-((1R,2R)-3-(2-(4-chlorophenyl)acetamido)-1,2-dihydroxypropyl)-4-hydroxy-2-(4-((hydroxy(prop-2-yn-1-yloxy)phosphoryl)oxy)butoxy)-5-(2-hydroxyacetamido)tetrahydro-2H-pyran-2-carboxylic acid] | 1000 to 10000 | – | < 1000

Further lines, results first:

Row | Kd [1] [nM] | Kd (cynomolgus Siglec-2/CD22) [nM] | Kd [2] [nM] | Structure (SMILES)
8 | > 10000 | > 10000 | > 10000 | C#CCOCCOCCO[C@]1(C(=O)NS(C)(=O)=O)C[C@H](O)[C@@H](NC(=O)CO)[C@H]([C@H](O)[C@H](O)CNC(=O)Cc2ccc(-c3ccc(O)cc3)cc2)O1 [Compound 65, (2R,4S,5R,6R)-6-((1R,2R)-1,2-dihydroxy-3-(2-(4′-hydroxy-[1,1′-biphenyl]-4-yl)acetamido)propyl)-4-hydroxy-5-(2-hydroxyacetamido)-N-(methylsulfonyl)-2-(2-(2-(prop-2-yn-1-yloxy)ethoxy)ethoxy)tetrahydro-2H-pyran-2-carboxamide]
9 | < 1000 | < 1000 | < 1000 | C#CCOCCOCCO[C@]1(C(=O)O)C[C@H](O)[C@@H](NC(=O)CO)[C@H]([C@H](O)[C@H](O)CNC(=O)Cc2ccc(-c3ccc4[nH]ccc4c3)cc2)O1 [Compound 4, (2R,4S,5R,6R)-6-((1R,2R)-3-(2-(4-(1H-indol-5-yl)phenyl)acetamido)-1,2-dihydroxypropyl)-4-hydroxy-5-(2-hydroxyacetamido)-2-(2-(2-(prop-2-yn-1-yloxy)ethoxy)ethoxy)tetrahydro-2H-pyran-2-carboxylic acid]
10 | 1000 to 10000 | 1000 to 10000 | 1000 to 10000 | C#CCOCCOCCO[C@]1(C(=O)O)C[C@H](O)[C@@H](NC(=O)CO)[C@H]([C@H](O)[C@H](O)CNC(=O)Cc2ccc(-c3ccccc3)cc2O)O1 [Compound 67, (2R,4S,5R,6R)-6-((1R,2R)-1,2-dihydroxy-3-(2-(3-hydroxy-[1,1′-biphenyl]-4-yl)acetamido)propyl)-4-hydroxy-5-(2-hydroxyacetamido)-2-(2-(2-(prop-2-yn-1-yloxy)ethoxy)ethoxy)tetrahydro-2H-pyran-2-carboxylic acid]
11 | – | > 10000 | 1000 to 10000 | C#CCOCCOCCO[C@]1(C(=O)O)C[C@H](O)[C@@H](NC(=O)CO)[C@H]([C@H](O)[C@H](O)CNC(=O)Cc2ccc(-c3ccncc3)cc2)O1 [Compound 72, (2R,4S,5R,6R)-6-((1R,2R)-1,2-dihydroxy-3-(2-(4-(pyridin-4-yl)phenyl)acetamido)propyl)-4-hydroxy-5-(2-hydroxyacetamido)-2-(2-(2-(prop-2-yn-1-yloxy)ethoxy)ethoxy)tetrahydro-2H-pyran-2-carboxylic acid]
12 | – | > 10000 | 1000 to 10000 | C#CCOCCOCCO[C@]1(C(=O)O)C[C@H](O)[C@@H](NC(=O)CO)[C@H]([C@H](O)[C@H](O)CNC(=O)Cc2ccc3c(c2)NC(=O)C3)O1 [Compound 12, (2R,4S,5R,6R)-6-((1R,2R)-1,2-dihydroxy-3-(2-(2-oxoindolin-6-yl)acetamido)propyl)-4-hydroxy-5-(2-hydroxyacetamido)-2-(2-(2-(prop-2-yn-1-yloxy)ethoxy)ethoxy)tetrahydro-2H-pyran-2-carboxylic acid]
